Data: patent US12264146B2, “Rho kinase inhibitor, method for preparing same and uses thereof” (BEIJING INCREASE INNOVATIVE DRUG CO., LTD., priority 2018, dated 2025)

How the values were obtained:
endothelin (ET-1) = assay: Expression of endothelin (ET-1) in EA.Hy926 endothelial cells, detection kit; format: cell-based, human; conditions: EA.Hy926 cell supernatant, 48 h
Method: (§1) Commercially available cytokine kits were used to detect the effects of the compounds of the present application on vascular endothelium-derived contracting factor endothelin, vascular endothelium-derived relaxing factor endothelial nitric oxide synthase, nitric oxide, and prostacyclin factor. The detection was performed according to the kit instructions. When testing the effect of the compound of the present application on cytokines, a normal control group, a fasudil hydrochloride group, and high-, medium- and low-dose groups of the compounds of the present application were set up for testing. The fasudil hydrochloride used in this test example was purchased from Beijing Sihuan Pharmaceutical Co., Ltd., with the SFDA approval number of H20173349. The EA.Hy926 cells used in this test example were purchased from Suzhou Beina Chuanglian Biotechnology Co., Ltd.
EA.Hy926 cells were taken and inoculated in a 96-well plate at 5×10^4 cells/mL, 100 μL per well, and cultured adherently for 24 hours, then the test compound prepared in DMEM medium was added, and an equal volume of DMEM medium was added in the normal control group, then the cells were cultured at 37° C. for 48 hours, and then the cell supernatant was taken and placed in an EP tube, and centrifuged at 3000 r/min, 4° C. for 15 min. The resulting cell supernatant was transferred to a new EP tube, diluted twice with culture medium, and detected according to the instruction of the human endothelin detection kit (purchased from Wuhan Boster Biological Engineering Co., Ltd., batch number 59113731009), and the detection results were shown in Table 2.

[1] = tested on: endothelial nitric oxide synthase (eNOS); assay: Endothelial nitric oxide synthase (eNOS) in EA.Hy926 endothelial cells, detection kit; format: cell-based; conditions: 24 h; for expression of endothelial nitric oxide synthase in endothelial cells: Detection result of test compound at low dose (0.4 μM) / expression of endothelial nitric oxide synthase in endothelial cells: Detection result of test compound at medium dose (2 μM) / expression of endothelial nitric oxide synthase in endothelial cells: Detection result of test compound at high dose (10 μM): EA.Hy926 cell supernatant
Method: as §1
Detection conditions: EA.Hy926 cells were inoculated at 1×10^5 […] in a 96-well plate, 100 μL per well, and cultured adherently for 24 hours, then the test compound prepared with DMEM medium was added, the normal control group was added with an equal volume of DMEM medium, then the cells were cultured for 24 hours at 37° C., and then the cell supernatant was taken and placed in an EP tube, and centrifuged at 3000 r/min and 4° C. for 15 minutes, the resulting supernatant was transferred to a new EP tube, diluted 3 times, and detected according to the instruction of eNOs detection kit (purchased from Wuhan Elabscience Biotechnology Co., Ltd., Cat. No. AK0017OCT12013), and the detection results were shown in Table 4.

| Compound | expression of endothelin in endothelial cells: Detection result of test compound at low dose (0.4 μM) (endothelin (ET-1)) [pg/mL] | expression of endothelin in endothelial cells: Detection result of test compound at medium dose (2 μM) (endothelin (ET-1)) [pg/mL] | expression of endothelin in endothelial cells: Detection result of test compound at high dose (10 μM) (endothelin (ET-1)) [pg/mL] | expression of endothelial nitric oxide synthase in endothelial cells: Detection result of test compound at low dose (0.4 μM) [1] [pg/mL] | expression of endothelial nitric oxide synthase in endothelial cells: Detection result of test compound at medium dose (2 μM) [1] [pg/mL] | expression of endothelial nitric oxide synthase in endothelial cells: Detection result of test compound at high dose (10 μM) [1] [pg/mL] | effect on the expression of nitric oxide synthase (in words) ([1]; high dose) |
| --- | --- | --- | --- | --- | --- | --- | --- |
| C[C@@H]1CNCCCN1S(=O)(=O)c1cccc2c(O)ncc(C3CC3)c12 [Compound R-YK1600-1, (R)-4-cyclopropyl-5-((2-methyl-1,4-diazacycloheptan-1-yl)sulfonyl)isoquinolin-1-ol] | 228.20 ± 2.28 | 229.34 ± 7.96 | 227.68 ± 3.34 | 2528.44 ± 267.48 | 2485.91 ± 287.57 | 2345.81 ± 213.65 | – |
| COc1ncc(C2CC2)c2c(S(=O)(=O)N3CCCNC[C@H]3C)cccc12 [Compound R-YK1600-2, (R)-4-cyclopropyl-1-methoxy-5-((2-methyl-1,4-diazacycloheptan-1-yl)sulfonyl)isoquinoline] | 223.55 ± 0.12 | 225.98 ± 11.41 | 229.23 ± 0.75 | 2428.32 ± 287.58 | 2384.92 ± 317.27 | 2245.86 ± 224.65 | – |
| C[C@@H]1CNCCCN1S(=O)(=O)c1cccc2c(O)nccc12 [Compound R-YK1601, (R)-5-((2-methyl-1,4-diazacycloheptan-1-yl)sulfonyl)isoquinolin-1-ol] | 253.46 ± 19.86 | 266.61 ± 20.77 | 243.07 ± 17.37 | 2526.66 ± 220.56 | 2339.70 ± 249.84 | 2598.44 ± 365.33 | slight promotion effect |
| COc1nccc2c(S(=O)(=O)N3CCCNC[C@H]3C)cccc12 [Compound R-YK1602, (R)-1-methoxy-5-((2-methyl-1,4-diazacycloheptan-1-yl)sulfonyl)isoquinoline] | 263.55 ± 0.12 | 285.24 ± 13.22 | 238.19 ± 19.65 | 2607.85 ± 384.81 | 2314.00 ± 393.66 | 2262.45 ± 134.54 | – |
